{"source": "ChEMBL document CHEMBL3044945", "about": "“Synthesis of 1,3,5-trisubstituted pyrazoline nucleus containing compounds and screening for antimicrobial activity” (2012)", "type_in_all_cases": "functional", "key": {"Pseudomonas aeruginosa [1]": {"test_system": "Pseudomonas aeruginosa", "experiment": "Antibacterial activity against Pseudomonas aeruginosa MTCC 424 at 750 ug/ml after 48 hr by cup-plate method", "settings": "MTCC 424, 48 h, read-out: DIZ"}, "Bacillus pumilus [2]": {"test_system": "Bacillus pumilus", "experiment": "Antibacterial activity against Bacillus pumilus MTCC 1456 after 24 to 48 hr by tube dilution method"}, "Penicillium chrysogenum [3]": {"test_system": "Penicillium chrysogenum", "experiment": "Antifungal activity against Penicillium chrysogenum MTCC 161 at 1250 ug/ml after 48 hr by cup-plate method", "settings": "MTCC 161, 48 h, read-out: DIZ"}, "Bacillus pumilus [4]": {"test_system": "Bacillus pumilus", "experiment": "Antibacterial activity against Bacillus pumilus MTCC 1456 at 500 ug/ml after 48 hr by cup-plate method", "settings": "MTCC 1456, 48 h, read-out: DIZ"}, "Penicillium chrysogenum [5]": {"test_system": "Penicillium chrysogenum", "experiment": "Antifungal activity against Penicillium chrysogenum MTCC 161 at 500 ug/ml after 48 hr by cup-plate method", "settings": "MTCC 161, 48 h, read-out: DIZ"}, "Micrococcus luteus [6]": {"test_system": "Micrococcus luteus", "experiment": "Antibacterial activity against Micrococcus luteus MTCC 1538 at 250 ug/ml after 48 hr by cup-plate method", "settings": "MTCC 1538, 48 h, read-out: DIZ"}, "Bacillus subtilis [7]": {"test_system": "Bacillus subtilis", "experiment": "Antibacterial activity against Bacillus subtilis MTCC 441 at 750 ug/ml after 48 hr by cup-plate method", "settings": "MTCC 441, 48 h, read-out: DIZ"}, "Escherichia coli": {"test_system": "Escherichia coli", "experiment": "Antibacterial activity against Escherichia coli MTCC 1573 at 1000 ug/ml after 48 hr by cup-plate method", "settings": "MTCC 1573, 48 h, read-out: DIZ"}, "Micrococcus luteus [8]": {"test_system": "Micrococcus luteus", "experiment": "Antibacterial activity against Micrococcus luteus MTCC 1538 at 750 ug/ml after 48 hr by cup-plate method", "settings": "MTCC 1538, 48 h, read-out: DIZ"}, "Bacillus subtilis [9]": {"test_system": "Bacillus subtilis", "experiment": "Antibacterial activity against Bacillus subtilis MTCC 441 at 100 ug/ml after 48 hr by cup-plate method", "settings": "MTCC 441, 48 h, read-out: DIZ"}, "Micrococcus luteus [10]": {"test_system": "Micrococcus luteus", "experiment": "Antibacterial activity against Micrococcus luteus MTCC 1538 after 24 to 48 hr by tube dilution method"}, "Micrococcus luteus [11]": {"test_system": "Micrococcus luteus", "experiment": "Antibacterial activity against Micrococcus luteus MTCC 1538 at 1000 ug/ml after 48 hr by cup-plate method", "settings": "MTCC 1538, 48 h, read-out: DIZ"}, "Bacillus pumilus [12]": {"test_system": "Bacillus pumilus", "experiment": "Antibacterial activity against Bacillus pumilus MTCC 1456 at 1250 ug/ml after 48 hr by cup-plate method", "settings": "MTCC 1456, 48 h, read-out: DIZ"}, "Aspergillus niger [13]": {"test_system": "Aspergillus niger", "experiment": "Antifungal activity against Aspergillus niger MTCC 2546 at 1000 ug/ml after 48 hr by cup-plate method", "settings": "MTCC 2546, 48 h, read-out: DIZ"}, "Pseudomonas aeruginosa [14]": {"test_system": "Pseudomonas aeruginosa", "experiment": "Antibacterial activity against Pseudomonas aeruginosa MTCC 424 after 24 to 48 hr by tube dilution method"}, "Penicillium chrysogenum [15]": {"test_system": "Penicillium chrysogenum", "experiment": "Antifungal activity against Penicillium chrysogenum MTCC 161 at 750 ug/ml after 48 hr by cup-plate method", "settings": "MTCC 161, 48 h, read-out: DIZ"}, "Aspergillus niger [16]": {"test_system": "Aspergillus niger", "experiment": "Antifungal activity against Aspergillus niger MTCC 2546 after 24 to 48 hr by tube dilution method"}, "Bacillus pumilus [17]": {"test_system": "Bacillus pumilus", "experiment": "Antibacterial activity against Bacillus pumilus MTCC 1456 at 750 ug/ml after 48 hr by cup-plate method", "settings": "MTCC 1456, 48 h, read-out: DIZ"}, "Staphylococcus aureus [18]": {"test_system": "Staphylococcus aureus", "experiment": "Antibacterial activity against Staphylococcus aureus MTCC 1430 at 250 ug/ml after 48 hr by cup-plate method", "settings": "MTCC 1430, 48 h, read-out: DIZ"}, "Aspergillus niger [19]": {"test_system": "Aspergillus niger", "experiment": "Antifungal activity against Aspergillus niger MTCC 2546 at 500 ug/ml after 48 hr by cup-plate method", "settings": "MTCC 2546, 48 h, read-out: DIZ"}, "Penicillium chrysogenum [20]": {"test_system": "Penicillium chrysogenum", "experiment": "Antifungal activity against Penicillium chrysogenum MTCC 161 at 1000 ug/ml after 48 hr by cup-plate method", "settings": "MTCC 161, 48 h, read-out: DIZ"}, "Staphylococcus aureus [21]": {"test_system": "Staphylococcus aureus", "experiment": "Antibacterial activity against Staphylococcus aureus MTCC 1430 at 500 ug/ml after 48 hr by cup-plate method", "settings": "MTCC 1430, 48 h, read-out: DIZ"}, "Staphylococcus aureus [22]": {"test_system": "Staphylococcus aureus", "experiment": "Antibacterial activity against Staphylococcus aureus MTCC 1430 at 1000 ug/ml after 48 hr by cup-plate method", "settings": "MTCC 1430, 48 h, read-out: DIZ"}, "Micrococcus luteus [23]": {"test_system": "Micrococcus luteus", "experiment": "Antibacterial activity against Micrococcus luteus MTCC 1538 at 500 ug/ml after 48 hr by cup-plate method", "settings": "MTCC 1538, 48 h, read-out: DIZ"}, "Staphylococcus aureus [24]": {"test_system": "Staphylococcus aureus", "experiment": "Antibacterial activity against Staphylococcus aureus MTCC 1430 at 1250 ug/ml after 48 hr by cup-plate method", "settings": "MTCC 1430, 48 h, read-out: DIZ"}, "Bacillus pumilus [25]": {"test_system": "Bacillus pumilus", "experiment": "Antibacterial activity against Bacillus pumilus MTCC 1456 at 250 ug/ml after 48 hr by cup-plate method", "settings": "MTCC 1456, 48 h, read-out: DIZ"}, "Pseudomonas aeruginosa [26]": {"test_system": "Pseudomonas aeruginosa", "experiment": "Antibacterial activity against Pseudomonas aeruginosa MTCC 424 at 100 ug/ml after 48 hr by cup-plate method", "settings": "MTCC 424, 48 h, read-out: DIZ"}, "Pseudomonas fluorescens": {"test_system": "Pseudomonas fluorescens", "experiment": "Antibacterial activity against Pseudomonas fluorescens MTCC 2421 at 750 ug/ml after 48 hr by cup-plate method", "settings": "MTCC 2421, 48 h, read-out: DIZ"}}}
{"smiles": "O=[N+]([O-])c1ccc(C2CC(c3cccc4ccccc34)=NN2c2ccc([N+](=O)[O-])cc2[N+](=O)[O-])cc1", "note": "(stereo not drawn)", "values": [{"measurement": "zone of inhibition at 750 µg/mL", "setting": "Pseudomonas aeruginosa [1]", "value": 13, "unit": "mm"}, {"measurement": "MIC", "setting": "Bacillus pumilus [2]", "value": 30, "unit": "µg/mL"}, {"measurement": "zone of inhibition at 1250 µg/mL", "setting": "Penicillium chrysogenum [3]", "value": 26, "unit": "mm"}, {"measurement": "zone of inhibition at 500 µg/mL", "setting": "Bacillus pumilus [4]", "value": 18, "unit": "mm"}, {"measurement": "zone of inhibition at 500 µg/mL", "setting": "Penicillium chrysogenum [5]", "value": 18, "unit": "mm"}, {"measurement": "zone of inhibition at 250 µg/mL", "setting": "Micrococcus luteus [6]", "value": 9, "unit": "mm"}, {"measurement": "zone of inhibition at 750 µg/mL", "setting": "Bacillus subtilis [7]", "value": 14, "unit": "mm"}, {"measurement": "zone of inhibition at 1000 µg/mL", "setting": "Escherichia coli", "value": 14, "unit": "mm"}, {"measurement": "zone of inhibition at 750 µg/mL", "setting": "Micrococcus luteus [8]", "value": 11, "unit": "mm"}, {"measurement": "zone of inhibition at 100 µg/mL", "setting": "Bacillus subtilis [9]", "value": 11, "unit": "mm"}, {"measurement": "MIC", "setting": "Micrococcus luteus [10]", "value": 150, "unit": "µg/mL"}, {"measurement": "zone of inhibition at 1000 µg/mL", "setting": "Micrococcus luteus [11]", "value": 12, "unit": "mm"}, {"measurement": "zone of inhibition at 1250 µg/mL", "setting": "Bacillus pumilus [12]", "value": 24, "unit": "mm"}, {"measurement": "zone of inhibition at 1000 µg/mL", "setting": "Aspergillus niger [13]", "value": 21, "unit": "mm"}, {"measurement": "MIC", "setting": "Pseudomonas aeruginosa [14]", "value": 50, "unit": "µg/mL"}, {"measurement": "zone of inhibition at 750 µg/mL", "setting": "Penicillium chrysogenum [15]", "value": 22, "unit": "mm"}, {"measurement": "MIC", "setting": "Aspergillus niger [16]", "value": 150, "unit": "µg/mL"}, {"measurement": "zone of inhibition at 750 µg/mL", "setting": "Bacillus pumilus [17]", "value": 20, "unit": "mm"}, {"measurement": "zone of inhibition at 250 µg/mL", "setting": "Staphylococcus aureus [18]", "value": 8, "unit": "mm"}, {"measurement": "zone of inhibition at 500 µg/mL", "setting": "Aspergillus niger [19]", "value": 16, "unit": "mm"}, {"measurement": "zone of inhibition at 1000 µg/mL", "setting": "Penicillium chrysogenum [20]", "value": 24, "unit": "mm"}, {"measurement": "zone of inhibition at 500 µg/mL", "setting": "Staphylococcus aureus [21]", "value": 9, "unit": "mm"}, {"measurement": "zone of inhibition at 1000 µg/mL", "setting": "Staphylococcus aureus [22]", "value": 12, "unit": "mm"}, {"measurement": "zone of inhibition at 500 µg/mL", "setting": "Micrococcus luteus [23]", "value": 10, "unit": "mm"}, {"measurement": "zone of inhibition at 1250 µg/mL", "setting": "Staphylococcus aureus [24]", "value": 14, "unit": "mm"}, {"measurement": "zone of inhibition at 250 µg/mL", "setting": "Bacillus pumilus [25]", "value": 11, "unit": "mm"}, {"measurement": "zone of inhibition at 100 µg/mL", "setting": "Pseudomonas aeruginosa [26]", "value": 10, "unit": "mm"}, {"measurement": "zone of inhibition at 750 µg/mL", "setting": "Pseudomonas fluorescens", "value": 21, "unit": "mm"}]}
